Data published in the supplement of paper PMC10307832.

Assays:
Assay in all cases: relative viability (nuclei count vs DMSO), 5 days (fraction); higher = more cells survive
Ibrutinib + Olaparib = compound: C=CC(=O)N1CCC[C@@H](n2nc(-c3ccc(Oc4ccccc4)cc3)c3c(N)ncnc32)C1 [Ibrutinib] + O=C(c1cc(Cc2n[nH]c(=O)c3ccccc23)ccc1F)N1CCN(C(=O)C2CC2)CC1 [Olaparib] (partner 8 µM)
Procedure, shortened: (§1)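 Dosing by pin tool came one day after lung cancer cell lines were seeded in 1536-well plates, using either one drug or a fixed anchor-drug dose plus five library-drug doses (not always all listed) in √10 steps. After 5 days, nuclei were counted on 4× images. Relative viability is treated-well nuclei count divided by vehicle-well nuclei count, and values are medians of duplicate plates.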

Ibrutinib + Tozasertib = compound: C=CC(=O)N1CCC[C@@H](n2nc(-c3ccc(Oc4ccccc4)cc3)c3c(N)ncnc32)C1 [Ibrutinib] + Cc1cc(Nc2cc(N3CCN(C)CC3)nc(Sc3ccc(NC(=O)C4CC4)cc3)n2)n[nH]1 [Tozasertib] (partner 0.1 µM)
Procedure, shortened: as §1

Ibrutinib = compound: C=CC(=O)N1CCC[C@@H](n2nc(-c3ccc(Oc4ccccc4)cc3)c3c(N)ncnc32)C1 [Ibrutinib]
Procedure, shortened: (§2)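 On vehicle-anchored 1536-well plates, lung cancer cell lines held overnight at 37 °C were pinned with five library-drug doses (not always all listed) spaced by √10. With no medium change over 5 days, they were then fixed, permeabilised and Hoechst-stained in one step and imaged at 4×. MetaXpress counted nuclei, and viability is the median across plates of treated-well over vehicle-well nuclei. Acceptance needed control CV below 25% and at least one doubling.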

PAC-1 = compound: C=CCc1cccc(/C=N/NC(=O)CN2CCN(Cc3ccccc3)CC2)c1O [PAC-1]
Procedure, shortened: as §2

Cell Line | relative viability (Ibrutinib + Olaparib; first compound 0.005 µM) | relative viability (Ibrutinib + Olaparib; first compound 0.01581 µM) | relative viability (Ibrutinib + Olaparib; first compound 0.05 µM) | relative viability (Ibrutinib + Olaparib; first compound 0.1581 µM) | relative viability (Ibrutinib + Olaparib; first compound 0.5 µM) | relative viability (Ibrutinib + Tozasertib; first compound 0.005 µM) | relative viability (Ibrutinib + Tozasertib; first compound 0.01581 µM) | relative viability (Ibrutinib + Tozasertib; first compound 0.05 µM) | relative viability (Ibrutinib + Tozasertib; first compound 0.1581 µM) | relative viability (Ibrutinib + Tozasertib; first compound 0.5 µM) | relative viability (Ibrutinib; 0.005 µM) | relative viability (Ibrutinib; 0.01581 µM) | relative viability (Ibrutinib; 0.05 µM) | relative viability (Ibrutinib; 0.1581 µM) | relative viability (Ibrutinib; 0.5 µM) | relative viability (PAC-1; 0.02 µM) | relative viability (PAC-1; 0.06325 µM) | relative viability (PAC-1; 0.2 µM) | relative viability (PAC-1; 2 µM)
LOU-NH91 | 0.836 | 0.751 | 0.798 | 0.931 | 0.692 | 0.699 | 0.582 | 0.581 | 0.648 | 0.488 | 0.801 | 0.926 | 0.848 | 0.884 | 0.678 | 0.891 | 0.959 | 0.917 | 0.972
LU99A | 0.254 | 0.272 | 0.285 | 0.291 | 0.25 | 0.264 | 0.279 | 0.285 | 0.258 | 0.278 | 0.992 | 0.884 | 0.892 | 1.06 | 0.939 | 0.908 | 0.977 | 0.892 | 0.954
LXF-289 | 1.16 | 0.994 | 1.01 | 1.03 | 1.02 | 0.22 | 0.192 | 0.164 | 0.248 | 0.197 | 1.06 | 1.01 | 1.04 | 0.972 | 0.973 | 0.974 | 1.01 | 0.997 | 1.01
NCI-H23 | 0.335 | 0.355 | 0.383 | 0.41 | 0.311 | 0.34 | 0.361 | 0.455 | 0.335 | 0.382 | 0.829 | 0.897 | 0.912 | 0.761 | 0.977 | 0.845 | 1.03 | 0.921 | 1.13
NCI-H322M | 0.766 | 0.768 | 0.775 | 0.725 | 0.659 | 0.426 | 0.459 | 0.415 | 0.474 | 0.354 | 0.801 | 0.811 | 0.843 | 0.666 | 0.671 | 0.833 | 0.897 | 1.05 | 0.884
NCI-H1299 | 1 | 0.964 | 0.978 | 0.98 | 0.924 | – | – | – | – | – | 1.02 | 1.01 | 1.05 | 1.01 | 1.05 | 1.03 | 0.979 | 1 | 1.01
NCI-H1563 | – | – | – | – | – | – | – | – | – | – | 0.922 | 0.893 | 1 | 0.977 | 0.861 | 0.953 | 1.03 | 1.04 | 0.94
NCI-H1623 | – | – | – | – | – | 0.44 | 0.407 | 0.301 | 0.451 | 0.201 | 0.894 | 0.842 | 0.672 | 0.858 | 0.299 | 0.966 | 0.891 | 0.95 | 0.926
NCI-H1703 | 0.317 | 0.289 | 0.449 | 0.4 | 0.327 | – | – | – | – | – | – | 0.864 | 0.916 | 0.879 | 0.769 | 0.993 | 0.903 | 0.955 | 0.962
NCI-H1792 | – | 0.506 | 0.402 | 0.353 | 0.379 | – | – | – | – | – | – | 1.06 | 0.925 | 0.567 | 0.762 | 0.951 | 0.991 | 0.996 | 0.95
